{"source": "patent US20240287131A1", "about": "“PEPTIDE” (AGC Inc., priority 2021, published 2024)", "system": "HeLa cells", "test": "Evaluation of ability to permeate cell membrane (uptake into cells, flow cytometry of Alexa Fluor 647 fluorescence)", "assay_type": "cell-based", "settings": "1.5 μM sample solution, 37° C., 1 hour; ratio to fluorescent dye 1", "procedure": "A DMSO solution of the synthesized peptide fluorescent conjugates 1, 4, and 5, and fluorescent dye 1 was diluted using a DMEM low-glucose culture solution to a concentration of 1.5 μM, the concentration of the DMSO contained was adjusted to 0.15%, and the resulting solution was used as a sample solution for a cell membrane permeability test.\nHeLa cells were seeded in a 96-well cell culture plate 24 hours before peptide treatment (0.5×10^5 cells/well).\nThe medium of HeLa cells pre-cultured at 37° C. for 24 hours was replaced with a sample solution of the peptide fluorescent conjugates 1, 4, and 5 and the fluorescent dye 1, and the ability to permeate a cell membrane after culturing at 37° C. for 1 hour was evaluated. […] The collected cells were analyzed by flow cytometry (guava easyCyte (trademark) 8) measuring red 2 fluorescence (661/15 nm) for detecting the fluorescent dye (Alexa Fluor647) introduced into the peptide fluorescent conjugate.\nUsing sample solutions of the peptide fluorescent conjugates 1 and 2, TAT-Alexa, and the fluorescent dye 1 prepared in the same manner as in Test Example 1, the red 2 fluorescence (661/15 nm) was measured and analyzed by flow cytometry by the same procedure as in Test Example 1. […]", "data": [{"substance": "TAT-Alexa: Alexa Fluor 647 C2 Maleimide added to the terminal Cys of Cys-TAT(47-57), commercially available cell-penetrating peptide (YGRKKRRQRRR; N-terminal Cys with Alexa Fluor 647; C-terminal amide; printed: Tyr-Gly-Arg-Lys-Lys-Arg-Arg-Gln-Arg-Arg-Arg-)", "values": [{"measurement": "average value of the fluorescence intensities of Alexa Fluor 647 in cells (MFI) relative to cells treated with the fluorescent dye 1", "result": "about double"}]}]}
